Measured values taken from publication PMC5114172 (Journal of applied toxicology : JAT, 2016).
Read-outs that look alike come from different tables or passages of the source.

Key:
MD-PBMCs = assay: IL-1β secretion; type: cell-based, human
[1] = test system: highly purified human NKs; settings: NK cells, ref Brown and Whalen, 2015, cited from earlier work
monocyte-depleted PBMCs = settings: MD-PBMCs, ref Brown and Whalen, 2015, cited from earlier work

## Oc1ccc(-c2nc(-c3ccncc3)c(-c3ccc(F)cc3)[nH]2)cc1 [SB202190, reference compound]
MD-PBMCs; 3 of the 4 donors, in 1 donor it greatly increased secretion
  effect on baseline secretion: significantly decreased
MD-PBMCs; donor F247, 24 h, SB202190 alone (0 DBT)
  Interleukin 1 beta secreted: 1613 ± 141 pg/mL
MD-PBMCs; donor F262, 24 h, SB202190 alone (0 DBT)
  Interleukin 1 beta secreted: 149 ± 41 pg/mL
MD-PBMCs; donor F372, 24 h, SB202190 alone (0 DBT)
  Interleukin 1 beta secreted: 36 ± 3 pg/mL
MD-PBMCs; donor F385, 24 h, SB202190 alone (0 DBT)
  Interleukin 1 beta secreted: 357 ± 61 pg/mL

## N#CC(=C(/N)Sc1ccccc1N)/C(C#N)=C(/N)Sc1ccccc1N [U0126, reference compound]
MD-PBMCs; donor F240, 24 h, U0126 50 μM alone (0 DBT)
  Interleukin 1 beta secreted: 1756 ± 54 pg/mL
MD-PBMCs; donor F242, 24 h, U0126 50 μM alone (0 DBT)
  Interleukin 1 beta secreted: 479 ± 29 pg/mL
MD-PBMCs; donor F244, 24 h, U0126 50 μM alone (0 DBT)
  Interleukin 1 beta secreted: 119 ± 28 pg/mL
MD-PBMCs; donor F245, 24 h, U0126 50 μM alone (0 DBT)
  Interleukin 1 beta secreted: 255 ± 25 pg/mL

## CCC[CH2][Sn]([CH2]CCC)[CH2]CCC [TBT, tributyltin]
[1]; donor KB169, 50 nM TBT
  fold increase in IL-1β secretion: 7.7 fold
[1]; donor KB169, 100 nM TBT
  fold increase in IL-1β secretion: 6.3 fold
monocyte-depleted PBMCs; donor F142, 24 h, 50 nM TBT
  fold increase in IL-1β secretion: 2.1 fold
monocyte-depleted PBMCs; donor F142, 24 h, 100 nM TBT
  fold increase in IL-1β secretion: 1.8 fold
monocyte-depleted PBMCs; donor F145, 24 h, 50 nM TBT
  fold increase in IL-1β secretion: 1.8 fold
monocyte-depleted PBMCs; donor F145, 24 h, 100 nM TBT
  fold increase in IL-1β secretion: 1.5 fold
monocyte-depleted PBMCs; third common donor (F152), 24 h, 50 nM TBT
  fold increase in IL-1β secretion: 11 fold

## CC(C)(C)c1ccc(S(=O)(=O)/C=C/C#N)cc1 [BAY 11-7085, reference compound]
MD-PBMCs; donor F244, 24 h, BAY 11-7085 alone (0 DBT)
  Interleukin 1 beta secreted: 836 ± 8 pg/mL
MD-PBMCs; donor F245, 24 h, BAY 11-7085 alone (0 DBT)
  Interleukin 1 beta secreted: 536 ± 51 pg/mL
MD-PBMCs; donor F333, 24 h, BAY 11-7085 alone (0 DBT)
  Interleukin 1 beta secreted: 2039 ± 62 pg/mL
MD-PBMCs; donor F334, 24 h, BAY 11-7085 alone (0 DBT)
  Interleukin 1 beta secreted: 703 ± 70 pg/mL
MD-PBMCs; inhibitor alone
  effect on baseline IL-1β secretion: varying effects

## CC(=O)N[C@@H](Cc1ccc(O)cc1)C(=O)N[C@H](C(=O)N[C@@H](C)C(=O)N[C@@H](CC(=O)O)C(=O)CCl)C(C)C [Caspase-1 Inhibitor II, reference compound]
MD-PBMCs; 50 μM, cells from each donor, p<0.05
  effect on baseline IL-1β production: significantly decreased
MD-PBMCs; donor F240, 24 h, Caspase-1 inhibitor II 50 μM alone (0 DBT)
  Interleukin 1 beta secreted: 237 ± 19 pg/mL
MD-PBMCs; donor F242, 24 h, Caspase-1 inhibitor II 50 μM alone (0 DBT)
  Interleukin 1 beta secreted: 460 ± 15 pg/mL
MD-PBMCs; donor F244, 24 h, Caspase-1 inhibitor II 50 μM alone (0 DBT)
  Interleukin 1 beta secreted: 233 ± 11 pg/mL
MD-PBMCs; donor F245, 24 h, Caspase-1 inhibitor II 50 μM alone (0 DBT)
  Interleukin 1 beta secreted: 150 ± 8 pg/mL
MD-PBMCs; donor F254, 24 h, Caspase-1 inhibitor II 50 μM alone (0 DBT)
  Interleukin 1 beta secreted: 39 ± 4 pg/mL
